In data set [1] the test system is MV4-11. The experiment in a line: Antiproliferative activity against human MV4-11 cells assessed as cell growth inhibition at 1 uM incubated for 72 hrs by CellTiter-Glo assay relative to control. The data set is classed as functional. Background: Cellular ATP, detected with luciferase, serves as a proxy for viable cell number.
Data set [2] deals with MV4-11. The experiment in a line: Antiproliferative activity against human MV4-11 cells assessed as cell growth inhibition incubated for 72 hrs by CellTiter-Glo assay. The data set is classed as functional, cell-based. As to conditions: MV4-11, 72 h.
In another data set the test system is HL-60(TB). The experiment in a line: Antiproliferative activity against human HL-60(TB) cells assessed as cell growth inhibition measured after 72 hrs by CellTiter-Glo assay. The data set is classed as functional.
A further data set concerns NCI-H522. The experiment in a line: Antiproliferative activity against human NCI-H522 cells assessed as cell growth inhibition measured after 72 hrs by CellTiter-Glo assay. The format is functional.
The subject of the next data set is HCT-15. The experiment in a line: Antiproliferative activity against human HCT-15 cells assessed as cell growth inhibition measured after 72 hrs by CellTiter-Glo assay. The data set is classed as functional.
For another data set, the system named is SNB-75. Put plainly: Antiproliferative activity against human SNB-75 cells assessed as cell growth inhibition measured after 72 hrs by CellTiter-Glo assay. The format is functional.
For another data set, the system named is UACC-62. Put plainly: Antiproliferative activity against human UACC-62 cells assessed as cell growth inhibition measured after 72 hrs by CellTiter-Glo assay. The format is functional.
The subject of the next data set is CAKI-1. The experiment in a line: Antiproliferative activity against human CAKI-1 cells assessed as cell growth inhibition measured after 72 hrs by CellTiter-Glo assay. The format is functional.
The test system of the next data set is MDA-MB-468. The experiment in a line: Antiproliferative activity against human MDA-MB-468 cells assessed as cell growth inhibition measured after 72 hrs by CellTiter-Glo assay. The format is functional.
In data set [3] the test system is MV4-11. The experiment in a line: Antitumor activity against human MV4-11 cells xenografted BALB/c nude mouse model assessed as tumor growth inhibition at 20 mg/kg, po QD administered for 28 consecutive days. The format is functional. As to conditions: MV4-11, 672 h, time 28 day, read-out: TGI. (In general: In xenograft studies the graft and the host belong to different species.)

In data set [4] the target is T1, Bromodomain-containing protein 4 (Homo sapiens, UniProt O60885). Put plainly: Inhibition of recombinant his tagged BRD4 BD1 (unknown origin) at 2 uM by Alpha screen assay relative to control.
The target of data set [5] is T1, Bromodomain-containing protein 4. The experiment in a line: Inhibition of Alexa647 labelled MS417 binding to his tagged BRD4 BD1 (unknown origin) by TR-FRET assay. In general terms: In TR-FRET formats the signal depends on donor and acceptor labels being close together.
Data set [6] in a line: Metabolic stability in human liver microsomes assessed as elimination half life incubated for 1 hr by LC-MS/MS analysis. As to conditions: read-out: beta t1/2. The data set is classed as ADME, Microsome.
Data set [7] is described as follows: Metabolic stability in monkey liver microsomes assessed as elimination half life incubated for 1 hr by LC-MS/MS analysis. As to conditions: rhesus monkey, read-out: beta t1/2. The format is ADME, Macaca mulatta, Microsome.
Data set [8] in a line: Metabolic stability in dog liver microsomes assessed as elimination half life incubated for 1 hr by LC-MS/MS analysis. The data set is classed as ADME, Canis lupus familiaris, Microsome. As to conditions: read-out: beta t1/2.
Data set [9] in a line: Metabolic stability in rat liver microsomes assessed as elimination half life incubated for 1 hr by LC-MS/MS analysis. As to conditions: read-out: beta t1/2. The data set is classed as ADME, Microsome.
The nature of data set [10]: Metabolic stability in human liver microsomes assessed as intrinsic clearance incubated for 1 hr by LC-MS/MS analysis. As to conditions: read-out: CLH. The format is ADME, Microsome.
A short description of data set [11]: Metabolic stability in monkey liver microsomes assessed as intrinsic clearance incubated for 1 hr by LC-MS/MS analysis. The format is ADME, Macaca mulatta, Microsome. As to conditions: rhesus monkey, read-out: CLH.
Data set [12] in a line: Metabolic stability in dog liver microsomes assessed as intrinsic clearance incubated for 1 hr by LC-MS/MS analysis. The format is ADME, Canis lupus familiaris, Microsome. As to conditions: read-out: CLH.
Data set [13] is described as follows: Metabolic stability in rat liver microsomes assessed as intrinsic clearance incubated for 1 hr by LC-MS/MS analysis. The data set is classed as ADME, Microsome. As to conditions: read-out: CLH.
Data set [14] can be described thus: Metabolic stability in human liver assessed as intrinsic clearance incubated for 1 hr by LC-MS/MS analysis. As to conditions: read-out: CLH. The data set is classed as ADME, tissue-based.
The nature of data set [15]: Metabolic stability in monkey liver assessed as intrinsic clearance incubated for 1 hr by LC-MS/MS analysis. The format is ADME, tissue-based, Macaca mulatta. As to conditions: rhesus monkey, read-out: CLH.
Data set [16] is described as follows: Metabolic stability in dog liver assessed as intrinsic clearance incubated for 1 hr by LC-MS/MS analysis. The format is ADME, tissue-based, Canis lupus familiaris. As to conditions: read-out: CLH.
A short description of data set [17]: Metabolic stability in rat liver assessed as intrinsic clearance incubated for 1 hr by LC-MS/MS analysis. The data set is classed as ADME, tissue-based. As to conditions: read-out: CLH.

Structures are written as SMILES. pIC50: −log10 of the molar value.

Broadly, the inhibition is the drop in the measured response relative to a control, in per cent. One may read the pIC50 as −log10 of the IC50, conventionally taken in molar units. The GI50 is the concentration giving 50% growth inhibition.

Regarding `CC(=O)c1c(C)[nH]c(-c2nc3cc(N4CCOCC4)ccc3[nH]2)c1C`, in the data set with MV4-11 [1], the inhibition at 1 µM worked out at 21.2%.

Take `COc1ccc(-c2c(-c3nc4cc(N5CCN(C)CC5)ccc4[nH]3)[nH]c(C)c2C(C)=O)cc1OC`: the pIC50 in the data set on MV4-11 [2] was 6.37.

Turning to `COc1cccc(-c2c(-c3nc4cc(N5CCN(C)CC5)ccc4[nH]3)[nH]c(C)c2C(C)=O)c1`, the pIC50 in the data set with MV4-11 [2] is 6.55.

Take `Cc1sc2c(c1C)C(c1ccc(Cl)cc1)=N[C@@H](CC(=O)Nc1ccc(O)cc1)c1nnc(C)n1-2` [BIRABRESIB]: the GI50 was determined as 179 nM in the data set on HL-60(TB); 262 nM in the data set on NCI-H522; 179 nM with HCT-15; 29.6 nM in the data set on SNB-75; 162 nM in the data set with UACC-62; 94.6 nM in the data set on CAKI-1. In addition, the GI50 with MDA-MB-468 stood at 212 nM. Moreover, the inhibition in vivo at 20 mg/kg in the data set with MV4-11 [3] came to 63.5%.

`Cc1sc2c(c1C)C(c1ccc(Cl)cc1)=N[C@@H](CC(=O)OC(C)(C)C)c1nnc(C)n1-2`: the pIC50 with MV4-11 [2] was 6.80.

`CC(=O)c1c(C)[nH]c(-c2nc3cc(N4CCN(C)CC4)ccc3[nH]2)c1-c1cnn(C)c1`: the inhibition at 1 µM in the data set on MV4-11 [1] came out at 53%.

With `CC(=O)c1c(C)[nH]c(-c2nc3cc(N4CCC(CO)CC4)ccc3[nH]2)c1C`, the pIC50 with MV4-11 [2] was 5.81.

As to `CC(=O)c1c(C)[nH]c(-c2nc3cc(N4CCN(C)CC4)ccc3[nH]2)c1C1CCCCC1`, the inhibition in data set [4] came to 79%.

As to `CSc1ccc(-c2c(-c3nc4cc(N5CCN(C)CC5)ccc4[nH]3)[nH]c(C)c2C(C)=O)cc1`, the pIC50 in the data set on MV4-11 [2] is 6.73.

With `CC(=O)c1c(C)[nH]c(-c2nc3c([nH]2)=CCC(Nc2ccnc(Cl)n2)C=3)c1C` (stereo not drawn), in data set [4], the inhibition came out at 91.1%.

In the case of `CC(=O)c1c(C)[nH]c(-c2nc3cc(N4CCN(C)CC4)ccc3[nH]2)c1-c1ccc2c(c1)OCO2`, the pIC50 in the data set with MV4-11 [2] was 6.79.

Turning to `CC(=O)c1c(C)[nH]c(-c2nc3cc(N4CCCCC4)ccc3[nH]2)c1C`, the pIC50 in the data set with MV4-11 [2] is 5.74.

Compound `CCS(=O)(=O)Nc1ccc(Oc2ccc(F)cc2F)c(-c2cn(C)c(=O)c3[nH]ccc23)c1` [MIVEBRESIB] showed a pIC50 in [5] of 7.96.

Turning to `CC(=O)c1c(C)[nH]c(-c2nc3cc(N4CCN(C)CC4)ccc3[nH]2)c1-c1ccccc1Cl`, the pIC50 in the data set on MV4-11 [2] is 6.36.

In the case of `CC(=O)c1c(C)[nH]c(-c2nc3cc(N4CCN(C)CC4)ccc3[nH]2)c1-c1ccc(C)cc1`, the pIC50 in the data set on MV4-11 [2] is 6.75.

On to `COc1ccc(-c2c(-c3nc4cc(N5CCN(C)CC5)ccc4[nH]3)[nH]c(C)c2C(C)=O)cc1F`, for which the pIC50 with MV4-11 [2] was 6.66.

Take `CC(=O)c1c(C)[nH]c(-c2nc3cc(N4CCN(C)CC4)ccc3[nH]2)c1-c1ccc(Cl)cc1`: the pIC50 in the data set on MV4-11 [2] was 6.54.

For `COc1ccccc1-c1c(-c2nc3cc(N4CCN(C)CC4)ccc3[nH]2)[nH]c(C)c1C(C)=O`, the inhibition at 1 µM in the data set on MV4-11 [1] is 25.3%.

Regarding `CCS(=O)(=O)N1CCN(c2ccc3[nH]c(-c4[nH]c(C)c(C(C)=O)c4C)nc3c2)CC1`, in the data set with MV4-11 [2], the pIC50 is 5.79.

As to `CC(=O)c1c(C)[nH]c(-c2ccc3cc[nH]c3c2)c1C`, the inhibition in [4] is 79.5%.

Turning to `COc1ccc(-c2c(-c3nc4cc(N5CCN(C)CC5)ccc4[nH]3)[nH]c(C)c2C(C)=O)cc1`, the pIC50 in the data set with MV4-11 [2] was 6.65.

For the compound `CCN(CC)c1ccc2[nH]c(-c3[nH]c(C)c(C(C)=O)c3C)nc2c1`, the inhibition at 1 µM in the data set with MV4-11 [1] was determined as 19.7%.

Consider `CC(=O)c1c(C)[nH]c(-c2nc3ccccc3s2)c1C`, for which the inhibition in data set [4] was 73.6%.

For the compound `CC(=O)c1c(C)[nH]c(-c2nc3cc(N4CCN(C)CC4)ccc3[nH]2)c1-c1ccc(N(C)C)cc1`, the pIC50 in the data set on MV4-11 [2] was 6.72.

As to `CCc1c(-c2nc3cc(N4CCN(C)CC4)ccc3[nH]2)[nH]c(C)c1C(C)=O`, the pIC50 in the data set with MV4-11 [2] is 6.21.

`CC(=O)c1c(C)[nH]c(-c2nc3cc(N4CCN(C)CC4)ccc3[nH]2)c1-c1cccc(Cl)c1`: the pIC50 with MV4-11 [2] was 6.49.

Consider `CC(=O)c1c(C)[nH]c(-c2nc3cc(N4CCN(C)CC4)ccc3[nH]2)c1-c1ccc2c(c1)OCCO2`, for which, in the data set with MV4-11 [2], the pIC50 was 6.80.

Turning to `CC(=O)c1c(C)[nH]c(-c2nc3cc(N4CCN(C)CC4)ccc3[nH]2)c1-c1ccc2ccccc2c1`, the pIC50 in the data set on MV4-11 [2] was 6.25.

As for `CC(=O)c1c(C)[nH]c(-c2cnc3ccccc3c2)c1C`, the inhibition in [4] came out at 85.5%.

Take `CCOc1ccc(-c2c(-c3nc4cc(N5CCN(C)CC5)ccc4[nH]3)[nH]c(C)c2C(C)=O)cc1`: the pIC50 with MV4-11 [2] was 6.72.

With `CC(=O)c1c(C)[nH]c(-c2ccc3c4ccccc4n(C)c3c2)c1C`, the inhibition in data set [4] came out at 84%.

Turning to `CC(=O)c1c(C)[nH]c(-c2nc3cc(N4CCN(C)CC4)ccc3[nH]2)c1C`, the pIC50 in the data set with MV4-11 [2] was 6.16.

As for `CC(=O)c1c(C)[nH]c(-c2nc3cc(N4CCOCC4)ccc3[nH]2)c1-c1ccccc1`, the pIC50 in the data set with MV4-11 [2] is 6.50. The half-life in [6] came to 61.4 min; in data set [7] it was 31.6 min; in [8], 44.6 min; in data set [9], 20.4 min. Besides, the microsomal CLint in data set [10] is 22.6 µL/min/mg; in [11], 43.8 µL/min/mg; in data set [12] it was 31.1 µL/min/mg; in data set [13], 68 µL/min/mg. In addition, the CLint scaled in [14] is 21.4 mL/min/kg; in data set [15], 63.1 mL/min/kg; in [16] it was 44.8 mL/min/kg; in [17], 122 mL/min/kg.

For `CC(=O)c1c(C)[nH]c(-c2nc3cc(N4CCN(C)CC4)ccc3[nH]2)c1C(C)C`, the inhibition in data set [4] worked out at 98.9%.

These data come from ChEMBL document CHEMBL5136977, “Discovery of 1-(5-(1H-benzo[d]imidazole-2-yl)-2,4-dimethyl-1H-pyrrol-3-yl)ethan-1-one derivatives as novel and potent bromodomain and extra-terminal (BET) inhibitors with anticancer efficacy” (Eur J Med Chem, 2022).
